Source: the supplement of paper PMC10949913
Values joined by “and” are separate entries in the source; they are usually repeats but may differ in a detail not shown here. Equal entries are not always repeated.

Assays:
Test in all cases: area under concentration-response curve (viability) (AUC (a.u.)); higher = less active
Settings in all cases: 48 h
CU-ACC1 = test system: CU-ACC1
Procedure, shortened: (§1)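 Three adrenocortical carcinoma cell lines were exposed for 48 h to library compounds at 11 concentrations in 1,536-well plates, then read by CellTiter-Glo luminescence. Signals were scaled per plate against vehicle and empty-well controls. From fitted concentration-response curves of inhibitory or non-responding classes alone, AC50 and area under the curve were obtained.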

CU-ACC2 = test system: CU-ACC2
Procedure, shortened: as §1

NCI-H295R = test system: NCI-H295R
Procedure, shortened: as §1

SMILES | area under concentration-response curve (CU-ACC1) | area under concentration-response curve (CU-ACC2) | area under concentration-response curve (NCI-H295R)
C=C[C@H]1CN2CCC1C[C@@H]2[C@@H](O)c1ccnc2ccccc12 (stereo partly specified) | 455 | 522 | 486
CCN(CC)CCOc1ccc(Cc2ccccc2)cc1 | 454 | 526 | 503
CC(C)c1cc(C(C)C)c(CC(=O)N[S+](=O)([O-])Oc2c(C(C)C)cccc2C(C)C)c(C(C)C)c1 | 456 | 454 | 480
Cc1noc(C)c1-c1ccc(-c2cc(C(N)=O)c(NC(N)=O)s2)c(O[C@H]2CCNC2)c1 | 456 | 471 | 447
CCCC(CCC)C(=O)[O-] | 445 | 482 | 442
CC1(C)S[C@H]2[C@H](NC(=O)[C@@H](N)c3ccc(O)cc3)C(=O)N2[C@H]1C(=O)O | 511 | 597 | 545
COc1cc2c(cc1OC)CC(=O)N(CCCN(C)C[C@H]1Cc3cc(OC)c(OC)cc31)CC2 | 486 | 601 | 542
CC(C)C[C@@H](N)[C@H](O)C(=O)N[C@H](C(=O)N[C@H](C(=O)N[C@@H](CC(=O)O)C(=O)O)C(C)C)C(C)C | 544 | 530 | 549
COC1=CC(=CC=C1)C2=CC=C(NC(=O)/C3=C(/CCC3)C(O)=O)C(=C2)F | 450 | 509 | 491
NC(=O)OCC(COC(N)=O)c1ccccc1 | 497 | 554 | 460
CCCCCCNC(=O)N1\C=C(F)/C(=O)NC1=O | 513 | 633 | 589
COC(=O)[C@H](Cc1ccccc1)NC(=O)[C@@H](N)CC(=O)O | 518 | 618 | 558
CCc1nc(N)nc(N)c1-c1ccc(Cl)cc1 | 483 | 564 | 521
Cc1cc(-c2cnn3c(NC[C@H]4C[C@@](C)(O)C4)cc(Oc4cccnc4)nc23)ccc1C(=O)NC1CC1 | 626 | 775 | 659
Cc1cnc(C(=O)O)c[n+]1[O-] | 513 | 579 | 526
Cc1ccc([S+](=O)([O-])OCC(=O)Nc2ccc(C(=O)O)c(O)c2)cc1 | 543 | 589 | 546
NC(=O)c1cnccn1 | 346 | 301 | 382
COc1cc(C)c(/C=C/C(C)=C/C=C/C(C)=C/C(=O)O)c(C)c1C | 484 | 544 | 524
COC1=C(F)C(=CC=C1)C/2=C(C)/N(CC3=C(F)C=CC=C3C(F)(F)F)C(=O)N(C[C@H](NCCCC(O)=O)C4=CC=CC=C4)C2=O | 508 | 598 and 615 | 556 and 555
CNC(=O)c1cccc(-c2ccc3c(N4CCOC[C@@H]4C)nc(N4CCOC[C@@H]4C)nc3n2)c1 | 452 | 545 | 453
CCNCc1nc2c(N)nc3ccccc3c2n1CC(C)(C)O | 500 | 556 | 516
CNCCN(C)Cc1c[nH]nc1-c1ccc(O[C@H]2C[C@H](OCCC3CCOCC3)C2)cc1 | 520 | 512 | 546
NC/1=N/C(=O)N(/C=N1)[C@@H]2O[C@H](CO)[C@@H](O)[C@H]2O | 469 | 522 | 504
COC(=O)/C=C/C(=O)N(O)CCCCNCc1ccc(COC(=O)Nc2cccc3ccccc23)cc1 | 208 | 245 | 225

SMILES | area under concentration-response curve (CU-ACC1) | area under concentration-response curve (CU-ACC2) | area under concentration-response curve (NCI-H295R)
Cc1ccc([S+](=O)([O-])N[C@@H](Cc2ccccc2)C(=O)CCl)cc1 | 530 | 628 | 584
COc1ccc(C(=O)N2CCN(c3ccc4c(c3)CCC(=O)N4)CC2)cc1OC | 458 | 562 | 554
CCOc1cc(N)c(Cl)cc1C(=O)NCC1CN(Cc2ccc(F)cc2)CCO1 (stereo unspecified) | 554 | 538 | 542
Cc1ccccc1C(C(=O)NC1CCCCC1)N(C(=O)Cn1ccnc1C)c1cccc(F)c1 (stereo unspecified) | 519 | 593 | 539
O=C(NOCC(O)CO)c1ccc(F)c(F)c1Nc1ccc(I)cc1F (stereo unspecified) | 329 | 459 | 488
COc1ccc(/C=C\c2cc(OC)c(OC)c(OC)c2)cc1NC(=O)[C@H](N)CO | 542 | 594 | 521
CCOC(=O)[C@@H](N)CCC(=O)N[C@@H](CSCc1ccccc1)C(=O)N[C@@H](C(=O)OCC)c1ccccc1 | 594 | 635 | 602
CC(C)(N[S+](=O)([O-])c1ccc2c(Cl)cnc(NC(=N)N)c2c1)C(=O)O | 527 | 609 | 570
C[C@@H]\1/N=C(/N)NC(=N1)\N(C)C | 407 | 596 | 549
C/C=C/C[C@@H](C)C(=O)[C@H]1C(=O)N[C@@H](C(C)C)C(=O)N(C)CC(=O)N(C)[C@@H](CC(C)C)C(=O)N[C@@H](C(C)C)C(=O)N(C)[C@@H](CC(C)C)C(=O)N[C@@H](C)C(=O)N[C@H](C)C(=O)N(C)[C@@H](CC(C)C)C(=O)N(C)[C@@H](CC(C)C)C(=O)N(C)[C@@H](C(C)C)C(=O)N1C | 534 | 633 | 524
O=C(c1ccc(N[S+](=O)([O-])c2cccc3cccnc23)cc1)N1CCN(CC2CC2)CC1 | 485 | 486 | 527
Clc1ccc2c(N3CCN(CCCN4CCN(c5ccnc6cc(Cl)ccc56)CC4)CC3)ccnc2c1 | 433 | 450 | 451
COc1cc(NC(=O)c2ccc(-c3ccc(Cl)cc3)o2)cc(OC)c1 | 469 | 562 | 536
CC1CCN(c2cc(N3CCN(C)CC3)ccc2NC(=O)c2cc(C#N)c[nH]2)CC1 | 542 | 600 | 544
OCCN1C[C@H](O)[C@@H](O)[C@H](O)[C@H]1CO | 519 | 540 | 489
Cn1c(Nc2ccc(C(F)(F)F)cc2)nc2cc(Oc3ccnc(-c4nc(C(F)(F)F)c[nH]4)c3)ccc21 | 369 | 508 | 469
C#Cc1cccc(Nc2ncnc3cc4c(cc23)OCCOCCOCCO4)c1 | 462 | 599 | 546
CN(C)NC(=O)CCC(=O)O | 405 | 410 | 397
COC1=C(F)C=C\2C(=C1)\N=C/3NNC(=C3\N=C2C4=CC=CC=C4Cl)/C | 538 | 528 | 552
COCCNCc1ccc(-c2cc3nccc(Oc4ccc(NC(=O)C5(C(=O)Nc6ccc(F)cc6)CC5)cc4F)c3s2)nc1 | 302 | 414 | 374
C=C(C)[C@@H]1CC[C@]2(C)CC[C@]3(C)[C@H](CC[C@@H]4[C@@]5(C)CC[C@H](O)C(C)(C)[C@@H]5CC[C@]43C)[C@@H]12 | 484 | 582 | 551
O=C(CN1C(=O)C2(CCCC2)NC[C@H]1c1cc(F)cc(F)c1)Nc1ccc2c(c1)C[C@@]1(C2)C(=O)Nc2ncccc21 | 463 | 565 | 515
CC[C@H](NC(=O)[C@H](C[S+](=O)([O-])CC1CC1)N[C@@H](c1ccc(F)cc1)C(F)(F)F)C(=O)C(=O)NC1CC1 | 534 | 510 | 538
